# The source made the active and inactive calls.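 Rule for the calls: active = growth-inhibition EC50 no more than tenfold above the top tested dose; inconclusive = flat fit between 30% and 70% inhibition, or unreliable fit; inactive = EC50 more than tenfold above the top tested dose.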
# Test system: E. coli NEB5alpha growth, BacTiter-Glo luminescence, 4 h
# Test: Escherichia coli growth inhibition, dose response, counter-screen for MEX-5/POS-1 RNA-binding inhibitor project, luminescence, NEB5alpha (AID 1959);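 note: pUC19-transformed ampicillin-resistant cells grown in LB with ampicillin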
row,Structure (SMILES),EC50
1,O=C(CSCc1c(Cl)cccc1Cl)NCC1CCCO1 (configuration not stated),> 11 µM (inactive)
2,CCn1c(C)nc2cc(N)ccc21,> 11 µM (inactive)
3,CN1CC=C2C(C#N)=C(N)C(C#N)(C#N)C(c3ccncc3)C2C1 (configuration not stated),> 11 µM (inactive)
4,Cc1ccc(-c2nc(C=Nc3ccc(O)cc3)c(O)o2)cc1,> 11 µM (inactive)
5,CN1C(=O)C(=Cc2cn(CC(=O)N3CCCCC3)c3ccccc23)C(=O)N(C)C1=O,> 11 µM (inactive)
6,C/C(=N\NC(=O)c1nnn(-c2nonc2N)c1-c1cccs1)c1cccc(O)c1,> 11 µM (inactive)
7,CCC(C)/C=C(C)/C=C/C1=CC2=C(Cl)C(=O)C(C)(OC(C)=O)C(=O)C2=CO1 (configuration not stated),> 11 µM (inactive)
8,CNc1nnc(-c2cc3ccccc3oc2=O)s1,> 11 µM (inactive)
9,Cc1cc([N+](=O)[O-])cc2c1NCC1CC=CC21 (configuration not stated),> 11 µM (inactive)
10,N#CC1=C(N)OC2=C(C(=O)CCC2)C1c1ccc2c(c1)OCO2 (configuration not stated),> 11 µM (inactive)
11,COc1ccc(OC)c(/C=c2\sc3nc(-c4cccs4)nn3c2=O)c1,> 11 µM (inactive)
12,CCOCCCNC(=O)CCC(=O)NNc1nc2ccccc2c2nc(C)nn12,> 11 µM (inactive)
13,O=C(NNC(=O)c1ccc2ccccc2c1O)c1ccccc1Cl,> 11 µM (inactive)
14,COc1ccc(-n2c(O)c(/C=C3\C=Nc4ccc(Br)cc43)c(=O)[nH]c2=O)c(OC)c1,> 11 µM (inactive)
15,O=C(CNC(=O)/C=C/c1ccco1)N=Nc1c(O)[nH]c2ccccc12,> 11 µM (inactive)
16,Cc1cc(/C=N/n2cnnc2)c(C)n1-c1cccc(C(=O)O)c1,> 11 µM (inactive)
17,COc1ccc(NS(=O)(=O)c2ccc3c(c2)[C@H]2C=CC[C@H]2[C@@H](c2ccc(C(=O)O)cc2)N3)cc1,> 11 µM (inactive)
18,O=[N+]([O-])c1ccc(/C=N/n2cnc3ccccc32)s1,> 11 µM (inactive)
19,Cc1cc(/C=C2/C(=O)NC(=O)N(c3ccc(Br)cc3)C2=O)c(C)n1C,> 11 µM (inactive)
20,C#CCOCCOCCOCCNc1nc(N2CCN(C(=O)[C@H]([C@@H](C)CC)n3cc([C@@H](N)CO)nn3)CC2)nc(N2CCN(C(=O)[C@H]([C@@H](C)CC)n3cc([C@@H](N)CC(C)C)nn3)CC2)n1,> 11 µM (inactive)
21,CCc1ccccc1N1C(=O)NC(=O)/C(=C\c2cc(C)n(C)c2C)C1=O,> 11 µM (inactive)
22,CC1(C)CC(=O)C2=C(C1)OC(/N=C/N1CCOCC1)=C(C#N)C2c1ccccc1 (configuration not stated),> 11 µM (inactive)
23,O=C(COC(=O)C1CCCC1)Nc1ncc(Cl)cc1Cl,> 11 µM (inactive)
24,COc1ccc(N=Cc2c(O)n(-c3cccc(C)n3)c(=O)c3ccccc23)c(OC)c1,> 11 µM (inactive)

row,Structure (SMILES),EC50
1,CC1(C)CC(=O)C2=C(C1)Nc1ccccc1S2,> 11 µM (inactive)
2,COc1ccc(C2C(C#N)=C(N)OC3=C2C(=O)CC(C)(C)C3)c([N+](=O)[O-])c1OC (configuration not stated),> 11 µM (inactive)
3,CCCCc1ccc(NC(=O)CSC2=NN3CCCC(=O)N=C3S2)cc1,> 11 µM (inactive)
4,CCc1cc[n+](-c2nc([O-])sc2C=O)cc1,> 11 µM (inactive)
5,CCN1C(=O)/C(=C\N(C)C)NC1=S,> 11 µM (inactive)
6,CC(C)CNC(=O)C1Nc2ccc(C(F)(F)F)cc2C2C=CCC12 (configuration not stated),> 11 µM (inactive)
7,O=C(NNC(=O)c1ccccc1O)c1ccco1,> 11 µM (inactive)
8,CCN1/C(=C2/SC(=S)N(NC(C)=O)C2=O)Sc2ccc(OC)cc21,> 11 µM (inactive)
9,CC(=O)N1CCc2c(sc(NC(=O)C3CCCN3S(=O)(=O)c3cccs3)c2C(N)=O)C1 (configuration not stated),> 11 µM (inactive)
10,Cc1cc(C)cc(N2C(=O)/C(=C\c3ccc(N4CCN(C)CC4)o3)C(=O)NC2=S)c1,> 11 µM (inactive)
11,CN(CC(=O)NCc1ccccn1)S(=O)(=O)c1ccc(Br)cc1,> 11 µM (inactive)
12,O=C(CN1C(=O)/C(=C\C=C\c2ccccc2)SC1=S)Nc1ccc(F)cc1,> 11 µM (inactive)
13,Cc1ccc(-c2ccccc2)n1-c1cccc(C(=O)O)c1,> 11 µM (inactive)
14,O=C(CC1Nc2ccccc2NC1=O)Nc1cc(Cl)cc(Cl)c1 (configuration not stated),> 11 µM (inactive)
15,N=C1/C(=C\c2ccc(SCc3ccccc3)o2)C(=O)N=C2SC(CC(=O)N3CCOCC3)=NN12,> 11 µM (inactive)
16,Cc1nc(S/C(=C/c2ccc(-c3cccc(Cl)c3)o2)C(=O)O)n[nH]1,> 11 µM (inactive)
17,Cc1cc(/C=C2\C(=O)NC(=O)N(c3ccc(Cl)cc3)C2=O)c(C)n1C,> 11 µM (inactive)
18,O=C(c1ccc(F)cc1)N1CCN(C2CCC(c3ccccc3)CC2)CC1 (configuration not stated),> 11 µM (inactive)
19,O=C(O)CCC(=O)N1N=C(c2cccs2)CC1c1cn(-c2ccccc2)nc1-c1ccccc1 (configuration not stated),> 11 µM (inactive)
20,CCOc1cccc(N2C(=O)/C(=C/c3ccco3)C(=O)NC2=S)c1,> 11 µM (inactive)
21,COC(=O)c1ccc(COc2ccc(/C=C(\C#N)c3nc4ccccc4[nH]3)cc2OC)o1,> 11 µM (inactive)
22,C/C(CCc1oc2ccc(Cl)cc2c1-c1ccc(C)o1)=N\O,> 11 µM (inactive)
23,Cc1ccc2cc(/C=C3\N=C(c4ccccc4)OC3=O)c(N3CCOCC3)nc2c1,> 11 µM (inactive)
